For data set [1], the target named is T1, GST-hLGK1 (human liver type GK) (Homo sapiens, UniProt P35557).
T1 construct: with a BamHI site added to immediately before the initiation codon; made in house; host or cells: Escherichia coli BL21
T1 sequence (P35557 1-464 isoform P35557-3): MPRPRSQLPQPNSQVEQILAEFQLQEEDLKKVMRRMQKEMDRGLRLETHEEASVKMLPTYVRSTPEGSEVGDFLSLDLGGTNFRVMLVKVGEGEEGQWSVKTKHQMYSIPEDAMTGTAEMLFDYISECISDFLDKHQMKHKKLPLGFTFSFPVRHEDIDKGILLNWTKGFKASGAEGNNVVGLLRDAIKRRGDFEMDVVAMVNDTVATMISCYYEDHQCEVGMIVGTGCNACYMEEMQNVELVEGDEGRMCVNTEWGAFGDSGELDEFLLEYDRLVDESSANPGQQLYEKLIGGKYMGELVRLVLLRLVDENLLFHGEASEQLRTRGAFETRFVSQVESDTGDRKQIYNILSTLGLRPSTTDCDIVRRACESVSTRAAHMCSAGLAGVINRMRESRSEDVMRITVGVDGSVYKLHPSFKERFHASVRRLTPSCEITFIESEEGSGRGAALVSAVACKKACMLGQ
In words: Determination of GK activity value (Mant-ATP conversion, capillary electrophoresis). In kind it is biochemical. To be noted: concentration necessary for activating 50% of the maximum GK activity value, 37° C., 60 min, D-glucose added. The procedure: A solution (5 μL) of test compound in 50% dimethyl sulfoxide was added to each well of 384 well black plate (Nalge Nunc International K.K.). Then, a solution (35 μL) obtained by diluting GST-hLGK1 obtained in Reference Example 2A with measurement buffer (containing 50 mM HEPES (pH 7.4), 200 mM KCl, 5 mM MgCl2, 2.5 mM DTT and 50 μM 2′-(or -3′)-O—(N-methylanthraniloyl)adenosine 5′-triphosphate (Mant-ATP) (Jena Bioscience GmbH)) to 6 μg/mL was added to each well.
Each well was stood at 37° C. for 10 min, and 25 mM D-glucose solution (10 μL) was added to start the reaction.
Each well after the reaction was stood at 37° C. for 60 min, and the reaction was quenched by adding 25 μL of a quenching solution (containing 200 mM HEPES (pH 7.4), 20 mM MgCl2, 200 mM EDTA, 0.03% Triton-X 100, 0.3% Coating 3 reagent (Caliper Life Sciences, Inc.)).
Mant-ATP (substrate) and Mant-ADP (reaction resultant product) were separated from each well after the reaction by a microchip type capillary electrophoresis apparatus 250 HTS (Caliper Life Sciences, Inc.). The reaction rate [(reaction resultant product peak height)/(reaction resultant product peak height+substrate peak height)×100(%)] was calculated from the ratio of the substrate peak height and reaction resultant product peak height obtained by fluorescence detection (excitation wavelength 355 nm, measurement wavelength 460 nm) and used as the index of GK activity.
As a control group, the reaction rate was calculated in the same manner as above except that “solution in 50% dimethyl sulfoxide” was used instead of “solution of test compound in 50% dimethyl sulfoxide”.
The percentage obtained by dividing the reaction rate of the well added with the test compound (test compound addition group) by the reaction rate of the well added with 50% solution in dimethyl sulfoxide alone (control group) was taken as the GK activity value of the test compound, and the concentration of the test compound necessary for activating 50% of the maximum value of the activity value is shown as EC50 value.

The melting point is the temperature, or range, at which the solid turns liquid. As usually defined, the EC50 is the concentration at which the effect is half-maximal. The low end stands for a more potent agent, the high end for a less potent agent.

`CN(c1ccc(F)c2cc(-c3nccs3)[nH]c12)S(=O)(=O)c1cccs1` [Example 182, N-[4-fluoro-2-(1,3-thiazol-2-yl)-1H-indol-7-yl]-N-methylthiophene-2-sulfonamide]: the melting point is 197 to 198 °C. In data set [1], this compound had an EC50 of 29 nM.
Consider `CCOC(=O)c1cc2c(C)c(C)cc(N(CC)S(=O)(=O)c3cccs3)c2[nH]1` [Example 251, Ethyl 7-[ethyl(2-thienylsulfonyl)amino]-4,5-dimethyl-1H-indole-2-carboxylate], for which the melting point was in the range of 134 to 135 °C.
Same read-out and setting: in the case of `CCN(c1cc(C)c(C)c2cc(-c3ncc(CO)s3)[nH]c12)S(=O)(=O)c1cccs1` [Example 254, N-Ethyl-N-{2-[5-(hydroxymethyl)-1,3-thiazol-2-yl]-4,5-dimethyl-1H-indol-7-yl}thiophene-2-sulfonamide] it was 189 to 190 °C.
